Patent US20240101600A1, “FIBROBLAST GROWTH FACTOR RECEPTOR (FGFR)-TARGETING ANTAGONISTIC SHORT PEPTIDE” (WENZHOU MEDICAL UNIVERSITY, priority 2019, published 2024)
Where no end group is shown, it is not given here.

Experiments:
FGFR2B = FGFR2B (Homo sapiens, UniProt P21802); assay: SPR detection of interaction with FGFR2B; assay type: binding
Hela229 cells = assay: MTT viability, Hela229 cells; assay type: cell-based; settings: 48 h with bFGF
Experimental: In vitro anti-tumor activity of a short peptide compound P48 Hela229 (1500 cells/100 μl), B16-F10 (1000 cells/100 μl), NCI-H460 (4000 cells/100 μl) and SGC7901 (4000 cells/100 μl) cells were inoculated in 96-well plates. After incubated overnight adherently, the original medium was replaced with a Dulbecco's modified eagle medium (DMEM) containing 0.1% fetal bovine serum (FBS) or a Roswell Park Memorial Institute 1640 (RPMI-1640) medium containing 0.1% FBS, and culture was continued for 24 h. A mixture of P48 and bFGF, or bFGF alone were added into corresponding wells, and incubated for 48 h; an MTT solution (5 mg/mL) prepared by PBS was added to the cells in each well at 37° C., and treated for 4 h. The MTT was removed by aspiration, 150 μL of DMSO was added to each well, shaking was conducted for 10 min, and an optical density (OD) value was quantified with a microplate reader (SpectraMax M2/M2e, Molecular Devices, Sunnyvale, USA) at a wavelength of 490 nm. The percentage of drug growth inhibition rate was calculated by comparing with the bFGF group. […] The experimental procedure was as follows: 10% FBS-containing medium (500 μl) was added to a lower surface of a transwell insertion chamber, the cells together with the drug were inoculated into an upper chamber, and cultured with a serum-free medium (200 μl). […]

FGFR1 = FGFR1 (Homo sapiens, UniProt P11362); assay: Western blot of FGFR1 signaling pathway in cervical cancer cells Hela229; assay type: cell-based; set-up: endogenous in cells; host or cells: Hela229; NCI-H460; SGC-7901; MGC-803; settings: bFGF stimulation
Experimental: Cervical cancer cells Hela229, melanoma B16-F10, lung cancer cells NCI-H460, gastric cancer cells SGC-7901 and MGC-803 were inoculated into 6-well plates, respectively. After growing adherently overnight, the cells were pretreated with P48 for 10 min or with AZD4547/SSR for 2 h, and incubated with bFGF for 15 min or with KGF for 20 min.

[1] = Half-life of peptides in human plasma (incubation, SPE, liquid chromatography); assay type: in vitro ADME; settings: compared with precursor peptide P9

Sequence of FGFR1 (P11362 22-822): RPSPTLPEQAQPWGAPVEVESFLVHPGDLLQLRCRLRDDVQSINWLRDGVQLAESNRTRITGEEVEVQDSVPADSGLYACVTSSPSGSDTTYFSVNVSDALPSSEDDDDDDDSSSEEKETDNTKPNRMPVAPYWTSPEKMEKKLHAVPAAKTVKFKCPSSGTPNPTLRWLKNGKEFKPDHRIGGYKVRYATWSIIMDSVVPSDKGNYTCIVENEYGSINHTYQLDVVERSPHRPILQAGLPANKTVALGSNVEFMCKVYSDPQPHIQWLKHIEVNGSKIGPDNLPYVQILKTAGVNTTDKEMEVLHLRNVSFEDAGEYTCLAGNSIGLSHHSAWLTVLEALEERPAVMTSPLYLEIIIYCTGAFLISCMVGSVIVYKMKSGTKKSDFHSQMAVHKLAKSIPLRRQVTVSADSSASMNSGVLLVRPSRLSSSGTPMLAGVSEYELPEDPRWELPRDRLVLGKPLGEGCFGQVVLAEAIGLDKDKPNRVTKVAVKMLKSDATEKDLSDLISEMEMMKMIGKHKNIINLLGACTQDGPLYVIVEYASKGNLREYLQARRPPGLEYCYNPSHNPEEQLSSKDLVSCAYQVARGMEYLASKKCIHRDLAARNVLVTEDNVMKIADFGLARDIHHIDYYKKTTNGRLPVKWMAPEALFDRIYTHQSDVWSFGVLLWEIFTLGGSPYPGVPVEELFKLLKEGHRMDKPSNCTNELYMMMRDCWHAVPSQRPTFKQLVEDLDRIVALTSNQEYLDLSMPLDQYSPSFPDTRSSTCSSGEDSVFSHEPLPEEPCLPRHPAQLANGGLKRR
Sequence of FGFR2B (P21802 22-822 isoform P21802-3 limits assumed): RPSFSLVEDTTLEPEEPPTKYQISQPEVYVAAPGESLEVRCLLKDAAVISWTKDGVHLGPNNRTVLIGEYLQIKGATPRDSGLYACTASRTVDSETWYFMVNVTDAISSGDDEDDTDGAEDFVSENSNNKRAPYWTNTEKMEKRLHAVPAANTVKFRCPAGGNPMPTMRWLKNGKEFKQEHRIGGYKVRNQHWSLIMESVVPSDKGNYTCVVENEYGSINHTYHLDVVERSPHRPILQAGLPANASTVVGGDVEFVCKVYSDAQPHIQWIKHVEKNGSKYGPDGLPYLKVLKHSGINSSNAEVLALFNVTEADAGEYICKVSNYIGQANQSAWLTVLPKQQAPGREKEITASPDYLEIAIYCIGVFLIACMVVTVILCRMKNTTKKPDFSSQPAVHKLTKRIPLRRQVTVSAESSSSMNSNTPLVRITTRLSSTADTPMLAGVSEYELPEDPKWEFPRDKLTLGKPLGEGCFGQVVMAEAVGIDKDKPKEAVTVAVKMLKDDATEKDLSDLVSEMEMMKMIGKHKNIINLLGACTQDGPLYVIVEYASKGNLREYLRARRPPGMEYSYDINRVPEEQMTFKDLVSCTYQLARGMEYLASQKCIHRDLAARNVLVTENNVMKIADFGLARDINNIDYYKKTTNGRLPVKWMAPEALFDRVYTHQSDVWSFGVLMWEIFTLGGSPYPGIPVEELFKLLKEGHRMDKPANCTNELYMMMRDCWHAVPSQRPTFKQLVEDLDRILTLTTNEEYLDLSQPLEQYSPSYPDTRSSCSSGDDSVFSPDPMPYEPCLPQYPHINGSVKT

Substance: SPPRYPGGGS-NH2 [P48, Ser-Pro-Pro-Arg-Tyr-Pro-Gly-Gly-Gly-Ser-NH2]
- binding to FGFR2B (FGFR2B): can be bound
- inhibition of cancer cell viability (Hela229 cells): can significantly inhibit the viability of cancer cells
- inhibition of FGFR1 signaling pathway (FGFR1): can inhibit the FGFR1 signaling pathway of cervical cancer, melanoma, lung cancer and gastric cancer in a concentration-dependent manner
- half-life in plasma [1]: relatively prolonged half-life
